US11242370B2, “Neuregulin-4 compounds and methods of use” (Eli Lilly and Company, priority 2019, dated 2022)
Changes are numbered by the printed parent chain. Names and notes keep the numbering of the source. Marks after values point to notes of the source that are not given here. Blank lines part the entries; values can stand above or below the molecule they belong to.

What was measured:
[1] = test system: rat model of heart failure with reduced ejection fraction (HFrEF); assay: Rat MI model, captopril, Example 10 or combination, echocardiography; format: in vivo; set-up: Left Ventricle Diameter (end diastole): unit not given here
Description: A nonclinical efficacy pharmacology study is conducted in a rat model of heart failure with reduced ejection fraction (HFrEF) to evaluate cardiac function and structure changes after captopril treatment, Example 10 treatment or combination treatment.
The left coronary artery is permanently ligated. All rats are individually housed in a temperature and humidity controlled room and maintained on a 12 hour light/dark cycle. Two to three weeks after surgery, rats undergo transthoracic echocardiography for determination of ejection fraction (EF %) and left ventricle dimensions (LVD) using a Vevo 2100 ultrasound system. Rats are randomized across treatment groups according to EF % and LVD.
Measurements of EF % and LVD are expressed as mean values±standard error (SE). Statistical analysis is performed with JMP® 13 software (SAS Institute, Inc.; Cary, N.C.) and Dunnett's Test is used for statistical comparisons across treatment groups. Statistical significance is accepted at P<0.05.
Three weeks after MI surgery, animals are randomized to 2 treatment groups (Placebo or captopril, 2 g/L in drinking water, ad lib) according to EF % and LVD. Three weeks and four weeks after dosing starts, cardiac function (EF %) and structure (LVD) are evaluated by transthoracic echocardiography. Animals are further randomized to additional groups based on cardiac function (EF %) and structure (LVD) to the following groups: Placebo, Example 10, captopril and Example 10+captopril. Animals in the Example 10 groups receive a single injection on week 4 after the 2nd randomization. Cardiac function (EF %) and structure (LVD) are evaluated on week 5 and 6.

[2] = molecular target: T1, human HER2 and HER4 (Homo sapiens, UniProt Q15303); assay: Screening by human HER2-HER4 mediated ERK 1/2 phosphorylation in CHO-hHER2-hHER4 (clone 1H6) cells; format: cell-based; details: Fc variants as 293F supernatants
T1 construct: expressed in transfected cells
Description: A cell based assay utilizing CHO-K1 cells overexpressing human or rat HER receptors is used to determine activity of NRG4 compounds. CHO-K1 cells (ATCC) are grown in DMEM-F12 3:1 with 5% FBS with 20 mM HEPES, 40 μg/mL L-Proline, lx antibiotics and were split 1:5 every 2-3 days with TripLE Express (Gibco). Cells are transfected with plasmid DNA encoding HER receptors in pairs (hHER2-3, hHER2-4, rHER2-3 and rHER2-4) with Fugene 6 (Promega) according to the manufacturer's instructions. […] Transfected cells are selected with Puromycin (12 ug/ml) and Hygromycin (1 mg/ml) for 3-4 weeks and clonal lines are obtained by limited dilution cloning into 96 well plates. Clonal lines are selected by appropriate gene expression of HER2, HER3 or HER4 by Taqman method. Lines with appropriate receptor expression are confirmed by NRG1 induced phospho-ERK 1/2 responses. Clones are grown up, harvested, aliquoted into cryovials and then frozen under liquid nitrogen for long-term storage.
A phospho-ERK1/2 activity assay is used to determine potencies of NRG4 compounds. The potency of Examples 1-8 and 10 as compared to WT human NRG1 and/or human NRG4 are analyzed in studies measuring stimulation of human HER2-HER4 mediated ERK 1/2 phosphorylation. This assay comprises a CHO-K1 stable line expressing human HER2 and HER4. CHO-hHER2-hHER4 (clone 1H6) cells are routinely cultured in DMEM: F12(3:1), 5% FBS, 40 μg/mL L-Proline, 10 μg/mL puromycin and 1 mg/mL hygromycin at 37° C., 5% CO2. Cells are washed twice with 1×PBS, dissociated with 0.05% trypsin/[…] EDTA and collected by centrifugation at 300×g for 10 m. Cells are re-suspended in maintenance media. 20,000 cells/well, in 30 μL, are seeded into 384 well Poly-D-Lysine cell culture plates (Greiner, Cat No. 781946). Plates are covered with a manufacturer's lid and moved to a 37° C. tissue culture incubator at 5% CO^2, 80%+ humidity and allowed to adhere. After 24 h, media are removed from the plates and replaced with 30 μL serum-free starvation media (Low glucose DMEM with 0.1% BSA) using a Biomek FX liquid handler. Plates are returned to the incubator for 24 h.
hFcNRG4 variants, transiently expressed as 293F supernatants, are prepared in starvation media in a clear 384W plate (Greiner, cat no. 781185) as a 4pt 1:8 serial dilution (dose range averaged between 250 pM to 140000 pM). Media are removed from the cell culture plates and the 30 uL/well prepared variants are stamped into the plates using a Biomek FX liquid handler. Plates are sealed with a foil seal and stimulated for 15 minutes at room temperature on an orbital shaker. Cells are then washed once with 50 uL cold PBS. 30 uL lysis buffer is added to the cells and oscillated for 10 m at RT on an orbital shaker.
Detection of phosphorylation of ERR 1/2 is performed with either an AlphaScreen SureFire phospho-ERK1/2 kit (T202/Y204) (Perkin Elmer, catalog no. TGRES) or an AlphaLISA® SureFire® Ultra™ p ERK1/2 assay kit together with the AlphaScreen Protein. A IgG Detection Kit (Protein-A) (PerkinElmer, catalogue no. 6760617). After lysis of the CHO-K1 cells. 4 μL lysate is transferred to a 384W Alpha Proxiplate (Perkin Elmer, cat no, 6008280) with a 384W Biomek FX. 4 uL positive and negative lysates (Perkin Elmer, TGRES-L) are added to available wells as controls. 5 uL/well acceptor mix (containing anti-phoso-Thr202/Tyr204 antibodies and Protein A conjugated acceptor beads) is added to the plate with a Forumlatrix Mantis. The plate is sealed, spun down for 1 min at 300×g and incubated for 2 hr at room temperature on an orbital shaker. 2 μL/well donor mix (containing strepavidin coated donor beads and biotinylated antibodies to a distal ERK1/2 epitope) is dispensed by Mantis. The plate is sealed, spun down for 1 min at 300×g and incubated for 2 hr at room temperature on an orbital shaker before reading on the Perkin Elmer Envision 2103 Multilabel Reader (HIS Alpha mode, excitation time: 40 ms, total measurement time: 130 ms). […]

[3] = Baseline (before captopril 2 g/L in drinking water)
[4] = Week 3 of captopril 2 g/L in drinking water
[5] = Week 4 (2nd randomization; before the single injection of Example 10)
[6] = Week 5 (single injection of Example 10 on week 4; captopril 2 g/L in drinking water)
[7] = Week 6 (single injection of Example 10 on week 4; captopril 2 g/L in drinking water)
[8] = Table 5, Examples average of two replicates ± standard deviation

Molecule: C[C@H](CS)C(=O)N1CCC[C@H]1C(=O)O [Captopril, captopril]
Ejection Fraction [1, 3]: 39.1%
Left Ventricle Diameter (end diastole) [1, 3]: 8.66
Ejection Fraction [1, 4]: 38.4%
Left Ventricle Diameter (end diastole) [1, 4]: 8.57
Ejection Fraction [1, 5]: 36.1%
Left Ventricle Diameter (end diastole) [1, 5]: 8.64
Ejection Fraction [1, 6]: 36.2%
Left Ventricle Diameter (end diastole) [1, 6]: 8.64*
Ejection Fraction [1, 7]: 34.6%
Left Ventricle Diameter (end diastole) [1, 7]: 8.71*

B1: Example 3: NRG4 D1G/V22Q, (GGGGS)3 linker, SEQ ID NO: 12, fused to IgG Fc dimer SEQ ID NO: 6 and 7 (protein)
chain 1: GGGGSGGGGSGGGGSGHEEPCGPSHKSFCLNGGLCYQIPTIPSPFCRCVENYTGARCEEVFL
chain 2: ECPPCPAPPVAGPSVFLFPPKPKDTLMISRTPEVTCVVVDVSHEDPEVQFNWYVDGVEVHNAKTKPREEQFNSTFRVVSVLTVVHQDWLNGKEYKCKVSNKGLPAPIEKTISKTKGQPREPQVYTLPPSREEMTKNQVSLWCLVKGFYPSDIAVEWESNGQPENNYKTTPPVLDSDGSFFLYSKLTVDKSRWQQGNVFSCSVMHEALHNHYTQKSLSLSPG
chain 3: B1 chain 2 with W141S, L143A, Y182V
EC50 [2, 8]: 0.29 ± 0.01 nM

B2: Example 2: NRG4 D1G/P8E, (GGGGS)3 linker, SEQ ID NO: 11, fused to IgG Fc dimer SEQ ID NO: 6 and 7 (protein)
chain 1: B1 chain 1 with P23E, Q37V
chain 2: B1 chain 2
chain 3: B1 chain 2 with W141S, L143A, Y182V
EC50 [2, 8]: 2.77 ± 0.39 nM

B3: Example 4: NRG4 D1G/I26F, (GGGGS)3 linker, SEQ ID NO: 13, fused to IgG Fc dimer SEQ ID NO: 6 and 7 (protein)
chain 1: B1 chain 1 with Q37V, I41F
chain 2: B1 chain 2
chain 3: B1 chain 2 with W141S, L143A, Y182V
EC50 [2, 8]: 0.53 ± 0.05 nM

B5: Example 6: NRG4 D1G/I26F/E44K, (GGGGS)3 linker, SEQ ID NO: 15, fused to IgG Fc dimer SEQ ID NO: 6 and 7 (protein)
chain 1: B1 chain 1 with Q37V, I41F, E59K
chain 2: B1 chain 2
chain 3: B1 chain 2 with W141S, L143A, Y182V
EC50 ([2]; Table 6): 0.395 nM

B7: Example 5: NRG4 D1G/E35A, (GGGGS)3 linker, SEQ ID NO: 14, fused to IgG Fc dimer SEQ ID NO: 6 and 7 (protein)
chain 1: B1 chain 1 with Q37V, E50A
chain 2: B1 chain 2
chain 3: B1 chain 2 with W141S, L143A, Y182V
EC50 [2, 8]: 0.84 ± 0.27 nM

Second part, the molecule after the results:

EC50 ([2]; Table 6): 0.563 nM
B4: Example 7: NRG4 D1G/I26F/E44H, (GGGGS)3 linker, SEQ ID NO: 16, fused to IgG Fc dimer SEQ ID NO: 6 and 7 (protein)
chain 1: B1 chain 1 with Q37V, I41F, E59H
chain 2: B1 chain 2
chain 3: B1 chain 2 with W141S, L143A, Y182V

EC50 ([2]; Table 6): 0.403 nM
B6: Example 8: NRG4 D1G/I26F/P8E, (GGGGS)3 linker, SEQ ID NO: 17, fused to IgG Fc dimer SEQ ID NO: 6 and 7 (protein)
chain 1: B1 chain 1 with P23E, Q37V, I41F
chain 2: B1 chain 2
chain 3: B1 chain 2 with W141S, L143A, Y182V
